In assay [1] the target is T1, GABA-A receptor; alpha-3/beta-3/gamma-2 (Homo sapiens, UniProt P18507+P28472+P34903).
T1 sequence (P18507 whole entry): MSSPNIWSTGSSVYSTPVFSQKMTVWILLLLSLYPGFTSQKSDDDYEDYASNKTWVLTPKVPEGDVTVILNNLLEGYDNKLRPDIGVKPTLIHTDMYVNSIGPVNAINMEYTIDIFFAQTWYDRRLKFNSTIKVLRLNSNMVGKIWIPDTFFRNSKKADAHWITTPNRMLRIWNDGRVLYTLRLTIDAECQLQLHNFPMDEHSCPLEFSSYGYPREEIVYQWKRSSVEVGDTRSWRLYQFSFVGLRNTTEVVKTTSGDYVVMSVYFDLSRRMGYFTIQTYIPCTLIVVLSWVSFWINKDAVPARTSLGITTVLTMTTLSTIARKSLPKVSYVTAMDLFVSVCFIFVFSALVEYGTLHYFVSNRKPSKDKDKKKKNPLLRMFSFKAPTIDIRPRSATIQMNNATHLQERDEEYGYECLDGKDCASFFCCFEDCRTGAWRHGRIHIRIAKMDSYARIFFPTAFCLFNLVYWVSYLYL
T1 sequence (P28472 whole entry): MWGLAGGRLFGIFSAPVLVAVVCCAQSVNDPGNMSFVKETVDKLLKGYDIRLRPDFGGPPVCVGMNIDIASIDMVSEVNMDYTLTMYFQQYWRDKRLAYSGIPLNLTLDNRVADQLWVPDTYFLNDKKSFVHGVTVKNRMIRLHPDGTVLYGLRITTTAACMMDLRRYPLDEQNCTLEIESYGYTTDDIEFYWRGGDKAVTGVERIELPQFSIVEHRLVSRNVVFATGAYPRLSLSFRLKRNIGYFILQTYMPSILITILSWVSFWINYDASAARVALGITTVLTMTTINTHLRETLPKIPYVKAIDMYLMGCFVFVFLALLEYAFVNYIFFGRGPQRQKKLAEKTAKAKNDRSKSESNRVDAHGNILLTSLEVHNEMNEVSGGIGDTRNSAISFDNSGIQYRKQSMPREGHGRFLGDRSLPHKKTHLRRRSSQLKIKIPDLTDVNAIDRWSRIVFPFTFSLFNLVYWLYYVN
T1 sequence (P34903 whole entry): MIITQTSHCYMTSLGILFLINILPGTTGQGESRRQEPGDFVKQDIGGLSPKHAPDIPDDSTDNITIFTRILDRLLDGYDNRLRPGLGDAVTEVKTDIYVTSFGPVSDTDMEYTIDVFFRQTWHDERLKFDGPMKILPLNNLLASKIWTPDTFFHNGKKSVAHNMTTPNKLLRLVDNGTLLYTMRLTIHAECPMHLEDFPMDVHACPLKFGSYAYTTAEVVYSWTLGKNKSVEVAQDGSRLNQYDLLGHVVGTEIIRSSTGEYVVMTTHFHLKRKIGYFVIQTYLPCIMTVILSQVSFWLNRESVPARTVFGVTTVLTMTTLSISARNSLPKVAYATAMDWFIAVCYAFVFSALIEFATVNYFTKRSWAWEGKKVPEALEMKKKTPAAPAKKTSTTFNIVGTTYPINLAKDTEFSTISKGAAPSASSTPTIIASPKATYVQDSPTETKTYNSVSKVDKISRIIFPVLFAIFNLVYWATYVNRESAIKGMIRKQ
As to the kind of experiment: Binding affinity for human GABA-A receptor alpha-3-beta-3-gamma-2 subunits in L(tk-) cells. The assay is classed as cell-based.

The target in assay [2] is T2, GABA-A receptor; alpha-5/beta-3/gamma-2 (Homo sapiens, UniProt P18507+P28472+P31644).
T2 sequence (P18507 whole entry): T1 sequence (P18507 whole entry)
T2 sequence (P28472 whole entry): T1 sequence (P28472 whole entry)
T2 sequence (P31644 whole entry): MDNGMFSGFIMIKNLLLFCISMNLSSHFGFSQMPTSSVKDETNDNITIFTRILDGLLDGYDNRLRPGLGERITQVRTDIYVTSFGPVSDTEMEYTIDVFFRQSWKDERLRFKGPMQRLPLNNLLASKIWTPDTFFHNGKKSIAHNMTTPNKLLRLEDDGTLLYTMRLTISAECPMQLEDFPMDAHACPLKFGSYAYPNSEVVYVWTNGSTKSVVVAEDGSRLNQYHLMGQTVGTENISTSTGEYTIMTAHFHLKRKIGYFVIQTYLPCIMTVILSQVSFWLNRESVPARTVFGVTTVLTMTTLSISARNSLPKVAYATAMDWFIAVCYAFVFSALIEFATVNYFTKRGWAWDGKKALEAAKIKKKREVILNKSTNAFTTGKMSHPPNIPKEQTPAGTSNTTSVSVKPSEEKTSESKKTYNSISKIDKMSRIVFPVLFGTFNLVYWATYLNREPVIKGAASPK
Put plainly: Binding affinity for human GABA-A receptor alpha-5-beta-3-gamma-2 subunits in L(tk-) cells. The assay is classed as cell-based.

Assay [3] addresses T3, GABA-A receptor; alpha-2/beta-3/gamma-2 (Homo sapiens, UniProt P18507+P28472+P47869).
T3 sequence (P18507 whole entry): T1 sequence (P18507 whole entry)
T3 sequence (P28472 whole entry): T1 sequence (P28472 whole entry)
T3 sequence (P47869 whole entry): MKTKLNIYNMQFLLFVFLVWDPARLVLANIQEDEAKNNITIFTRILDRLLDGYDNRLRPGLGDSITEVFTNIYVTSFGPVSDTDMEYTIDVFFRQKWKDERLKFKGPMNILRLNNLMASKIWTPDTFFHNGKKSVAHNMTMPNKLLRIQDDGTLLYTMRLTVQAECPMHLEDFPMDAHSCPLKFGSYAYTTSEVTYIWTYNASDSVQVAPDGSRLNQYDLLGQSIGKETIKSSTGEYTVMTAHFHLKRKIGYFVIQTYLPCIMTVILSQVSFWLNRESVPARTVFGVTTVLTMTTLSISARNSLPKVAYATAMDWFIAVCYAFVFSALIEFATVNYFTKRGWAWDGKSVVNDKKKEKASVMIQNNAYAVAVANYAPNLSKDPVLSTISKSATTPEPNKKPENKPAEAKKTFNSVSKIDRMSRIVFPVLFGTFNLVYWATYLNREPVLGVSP
As to the kind of experiment: Binding affinity for human GABA-A receptor alpha-2-beta-3-gamma-2 subunits in L(tk-) cells. The assay is classed as cell-based.

For assay [4], the target named is T4, GABA-A receptor; alpha-1/beta-3/gamma-2 (Homo sapiens, UniProt P14867+P18507+P28472).
T4 sequence (P14867 whole entry): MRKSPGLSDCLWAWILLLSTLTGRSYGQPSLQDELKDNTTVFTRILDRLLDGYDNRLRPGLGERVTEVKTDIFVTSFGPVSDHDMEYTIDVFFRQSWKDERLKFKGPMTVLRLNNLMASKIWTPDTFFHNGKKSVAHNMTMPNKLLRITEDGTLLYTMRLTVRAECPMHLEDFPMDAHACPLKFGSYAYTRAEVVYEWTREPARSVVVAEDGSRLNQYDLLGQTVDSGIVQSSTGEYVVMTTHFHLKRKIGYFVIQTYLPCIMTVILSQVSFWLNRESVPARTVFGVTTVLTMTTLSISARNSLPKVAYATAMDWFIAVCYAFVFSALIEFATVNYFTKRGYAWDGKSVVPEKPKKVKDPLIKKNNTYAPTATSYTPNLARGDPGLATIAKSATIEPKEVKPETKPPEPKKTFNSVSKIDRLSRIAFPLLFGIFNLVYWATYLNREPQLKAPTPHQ
T4 sequence (P18507 whole entry): T1 sequence (P18507 whole entry)
T4 sequence (P28472 whole entry): T1 sequence (P28472 whole entry)
Put plainly: Binding affinity for human GABA-A receptor alpha-1-beta-3-gamma-2 subunits in L(tk-) cells.

The term Ki denotes the equilibrium dissociation constant of an inhibitor or competing ligand from its target. Lower therefore signals tighter binding. On to `COc1ccc(COc2nn3c(-c4ccccc4)nnc3c3ccccc23)cc1`, for which the inhibition constant (Ki) stood at 190 nM in assay [1], 160 nM in assay [2], 220 nM in assay [3] and 200 nM in assay [4].
Take `O=C1c2ccccc2C(=O)N1CCn1c(=O)c2ccccc2c(=O)n1Cc1ccccc1`: the Ki in assay [1] turned out to be 1400 nM; in assay [2], 4800 nM; in assay [3], 1800 nM.
Regarding `c1ccc(-c2nnc3c4ccccc4c(OCc4ccco4)nn23)cc1`, the Ki in assay [1] was 180 nM; in assay [2] it was 74 nM; in assay [3], 270 nM; in assay [4] it was 250 nM.
On to `CC(C)(C)c1nnc2c3ccccc3c(OCc3ccccn3)nn12`, for which the Ki in assay [1], in assay [2], in assay [3] and in assay [4] was above 1000 nM each time.
With `COc1ccccc1COc1nn2c(-c3ccccc3)nnc2c2ccccc12`, the inhibition constant (Ki) in assay [1], in assay [2], in assay [3] and in assay [4] was above 1000 nM each time.
As to `CCCc1nnc2c3ccccc3c(OCc3ccccn3)nn12`, the Ki is 52 nM in assay [1], 19 nM in assay [2], 120 nM in assay [3] and 160 nM in assay [4].
With `COc1ccc(-c2nnc3c4ccccc4c(OCc4ccccc4)nn23)cc1`, the Ki in assay [1] is 170 nM; in assay [2], 72 nM; in assay [3], 850 nM.
For the compound `c1ccc(CNc2nn3c(-c4ccccc4)nnc3c3ccccc23)cc1`, the inhibitory constant (Ki) in assay [1], in assay [2], in assay [3] and in assay [4] was above 1000 nM throughout.
On to `CN(Cc1ccccc1)c1nn2c(-c3ccccc3)nnc2c2ccccc12`, for which the Ki in assay [1] is above 1000 nM; in assay [2] it was 240 nM; in assay [3], above 1000 nM; in assay [4], 500 nM.
As to `c1ccc(-c2nnc3c4ccccc4c(OCc4ccoc4)nn23)cc1`, the inhibition constant (Ki) in assay [1] is 21 nM; in assay [2], 13 nM; in assay [3], 38 nM; in assay [4], 26 nM.
Taken in the same sequence, the figures for `c1ccc(-c2nnc3c4ccccc4c(OCC4CCCCC4)nn23)cc1` were above 1000 nM, above 1000 nM, above 1000 nM and above 1000 nM.
With `c1ccc(-c2nnc3c4ccccc4c(OCc4cccnn4)nn23)cc1`, the inhibition constant (Ki) in assay [1] is 0.37 nM; in assay [2], 0.15 nM; in assay [4] it was 0.82 nM.
Consider `c1ccc(CCCOc2nn3c(-c4ccccc4)nnc3c3ccccc23)cc1`, for which the inhibitory constant (Ki) is 420 nM in assay [1], above 1000 nM in assay [2], above 1000 nM in assay [3] and 300 nM in assay [4].
With `c1ccc(-c2nnc3c4ccccc4c(OCc4cccs4)nn23)cc1`, the Ki worked out at 300 nM in assay [1], 170 nM in assay [2], 560 nM in assay [3] and 240 nM in assay [4].
Taken in the same sequence, the figures for `COc1nn2c(-c3ccccc3)nnc2c2ccccc12` were 120 nM, 39 nM, 160 nM and 140 nM.
In turn, `Cc1ccc(-c2nc3ccc(C)cn3c2CC(=O)N(C)C)cc1` [ZOLPIDEM] came in with an inhibitory constant (Ki) in assay [2] above 15000 nM.
For `c1ccc(Cc2nnc3c4ccccc4c(OCc4ccccn4)nn23)cc1`, the Ki in assay [1] came to 190 nM; in assay [2], 18 nM; in assay [3], 340 nM; in assay [4] it was 260 nM.
The like results for `COc1cccc(COc2nn3c(-c4ccccc4)nnc3c3ccccc23)c1` were, in that order, 66 nM, 150 nM, 170 nM and 800 nM.
Take `c1ccc(COc2nn3c(-c4ccccc4)nnc3c3ccccc23)cc1`: the Ki is 41 nM in assay [1], 38 nM in assay [2], 16 nM in assay [3] and 280 nM in assay [4].
In the case of `COCCN(CCOC)c1nn2c(-c3ccc(OC)cc3)nnc2c2ccccc12`, the values for the Ki in assay [1], in assay [2] and in assay [3] were 41 nM, 80 nM and 41 nM, respectively.
Take `c1ccc(CCOc2nn3c(-c4ccccc4)nnc3c3ccccc23)cc1`: the Ki in assay [1] is 720 nM; in assay [2], above 1000 nM; in assay [3], above 1000 nM; in assay [4] it was 380 nM.
As to `c1ccc(-c2nnc3c4ccccc4c(OCc4cccnc4)nn23)cc1`, the Ki in assay [1] came to 19 nM; in assay [2], 31 nM; in assay [3], 16 nM; in assay [4], 19 nM.
On to `CN(C)Cc1nnc2c3ccccc3c(OCc3ccccn3)nn12`, for which the Ki in assay [1] is 840 nM; in assay [2], 160 nM; in assay [3], 620 nM; in assay [4], 140 nM.
The like results for `Cc1ccc(COc2nn3c(-c4ccccc4)nnc3c3ccccc23)nc1` were, in that order, 4.3 nM, 1.1 nM, 3.6 nM and 4.8 nM.
As for `c1ccc(-c2nnc3c4ccccc4c(OCCc4ccccn4)nn23)cc1`, the Ki is 17 nM in assay [1], 15 nM in assay [2], 25 nM in assay [3] and 18 nM in assay [4].
Take `CCc1nnc2c3ccccc3c(OCc3ccccn3)nn12`: the Ki stood at 53 nM in assay [1], 16 nM in assay [2], 130 nM in assay [3] and 250 nM in assay [4].
For the compound `Cc1ccc(-c2nnc3c4ccccc4c(OCc4ccccn4)nn23)cc1`, the figures for the Ki in assay [1], in assay [2] and in assay [3] were 11 nM, 4 nM and 16 nM, respectively.

(Values after ChEMBL document CHEMBL1149126, “3-phenyl-6-(2-pyridyl)methyloxy-1,2,4-triazolo[3,4-a]phthalazines and analogues: high-affinity gamma-aminobutyric acid-A benzodiazepine receptor ligands with alpha 2, alpha 3, and alpha 5-subtype binding selectivity over alpha 1” (J Med Chem, 2004).)
